This experiment has as its system THP-1. As to the kind of experiment: Anticoagulant activity in human THP1 cells assessed as inhibition of TNF-alpha-stimulated tissue factor expression incubated 1 hr before TNFalpha challenge measured after 5 hrs. It is filed as functional, cell-based.
One may read the IC50 as the concentration needed to halve the response being measured. With `C[C@@H]1CC[C@@]2(OC1)O[C@H]1C[C@H]3[C@@H]4CCC5=CC(=O)C[C@@H](O)[C@]5(C)[C@H]4CC[C@]3(C)[C@H]1[C@@H]2C`, the half-maximal inhibitory concentration (IC50) was found to be 0.29 µM.
Regarding `COc1cc(/C=C/C(=O)CC(=O)/C=C/c2ccc(O)c(OC)c2)ccc1O` [CURCUMIN], the IC50 amounted to 1.21 µM.
The result for `C[C@@H]1CC[C@@]2(OC1)O[C@H]1C[C@H]3[C@@H]4CC=C5C[C@@H](O)CC[C@]5(C)[C@H]4CC[C@]3(C)[C@H]1[C@@H]2C` [DISOGENIN] reads 6.96 µM.
The result for `C[C@@H]1CC[C@@]2(OC1)O[C@H]1C[C@H]3[C@@H]4CC=C5C[C@@H](O)C[C@@H](O)[C@]5(C)[C@H]4CC[C@]3(C)[C@H]1[C@@H]2C` [RUSCOGENIN] reads 2.27 µM; that for `C[C@H]1CC[C@@]2(OC1)O[C@H]1C[C@H]3[C@@H]4CC[C@@H]5C[C@@H](O)CC[C@]5(C)[C@H]4CC[C@]3(C)[C@H]1[C@@H]2C` [SARSASAPOGENIN], 3.3 µM.
